Data reported in patent US20240182453A1, “NOVEL SUBSTITUTED PYRAZINE-CARBOXAMIDE DERIVATIVES” (Boehringer Ingelheim International GmbH, priority 2022, published 2024).

molecular target: human metabotropic Glutamate 4 receptor (mGluR4) (Homo sapiens (Human), UniProt Q14833); test: Assay A: in vitro testing of mGluR4 potency (glutamate-induced cAMP lowering, HTRF cAMP); format: cell-based; details: HEK293 cells overexpressing human mGluR4; 10 uM L-glutamic acid, 1 uM forskolin; compounds of the present invention
Sequence (Q14833 33-912): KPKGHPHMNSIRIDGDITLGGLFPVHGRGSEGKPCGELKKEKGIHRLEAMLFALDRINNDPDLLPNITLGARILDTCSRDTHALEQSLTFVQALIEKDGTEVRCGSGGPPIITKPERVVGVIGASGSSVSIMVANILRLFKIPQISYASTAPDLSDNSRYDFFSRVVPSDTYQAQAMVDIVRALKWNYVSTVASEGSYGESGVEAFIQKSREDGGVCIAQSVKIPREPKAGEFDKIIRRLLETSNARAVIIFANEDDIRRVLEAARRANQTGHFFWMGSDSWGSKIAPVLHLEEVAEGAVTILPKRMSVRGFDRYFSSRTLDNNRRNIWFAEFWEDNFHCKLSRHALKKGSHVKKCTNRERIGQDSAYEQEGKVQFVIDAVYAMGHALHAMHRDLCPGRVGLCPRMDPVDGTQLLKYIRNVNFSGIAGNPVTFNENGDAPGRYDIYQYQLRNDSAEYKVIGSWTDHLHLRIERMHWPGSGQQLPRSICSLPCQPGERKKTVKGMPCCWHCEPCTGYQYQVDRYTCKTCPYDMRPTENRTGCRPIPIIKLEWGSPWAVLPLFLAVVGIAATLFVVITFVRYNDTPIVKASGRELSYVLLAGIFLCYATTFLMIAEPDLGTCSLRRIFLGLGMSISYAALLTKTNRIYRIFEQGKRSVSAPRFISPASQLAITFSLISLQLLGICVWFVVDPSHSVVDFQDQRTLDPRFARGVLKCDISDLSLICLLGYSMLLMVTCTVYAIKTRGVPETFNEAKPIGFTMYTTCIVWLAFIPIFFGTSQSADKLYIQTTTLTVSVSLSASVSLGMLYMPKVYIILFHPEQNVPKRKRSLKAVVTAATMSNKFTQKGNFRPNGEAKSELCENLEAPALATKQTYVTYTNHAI
In short: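 HEK293 cells overexpressing human mGluR4 treated 30 min at room temperature with compound plus 10 uM L-glutamate, 1 uM forskolin, 0.5 mM IBMX, 0.1% BSA, 1% DMSO. cAMP read by HTRF (665/615 nm ratio), normalized to glutamate (100%) and no-glutamate (0%) controls as percent of control.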

Compound	IC50
O=C(N[C@@H](CC1CC1)c1nc2cc(F)c(F)cc2n1C1CC1)c1cnc(C(F)F)cn1 [Example 118, N-[(1S)-2-cyclopropyl-1-(1-cyclopropyl-5,6-difluoro-1H-1,3-benzodiazol-2-yl)ethyl]-5-(difluoromethyl)pyrazine-2-carboxamide]	14 nM
CO[C@H](C)[C@H](NC(=O)c1cnc(C)cn1)c1nc2cc(OC(F)(F)F)ccc2n1CCOC1CCC1 [Example 120, N-[(1R,2R)-1-[1-(2-cyclobutoxyethyl)-5-(trifluoromethoxy)-1H-1,3-benzodiazol-2-yl]-2-methoxypropyl]-5-methylpyrazine-2-carboxamide]	1 nM
COCCn1c([C@@H](NC(=O)c2cnc(C)cn2)C(C)(C)O)nc2cc(C(F)(F)F)ccc21 [Example 126, N-[(1R)-2-hydroxy-1-[1-(2-methoxyethyl)-5-(trifluoromethyl)-1H-1,3-benzodiazol-2-yl]-2-methylpropyl]-5-methylpyrazine-2-carboxamide]	14 nM
COC[C@@H](C)n1c([C@@H](NC(=O)c2cnc(C)cn2)[C@@H](C)OC)nc2cc(OC(F)(F)F)ccc21 [Example 129, N-[(1R,2R)-2-methoxy-1-{1-[(2R)-1-methoxypropan-2-yl]-5-(trifluoromethoxy)-1H-1,3-benzodiazol-2-yl}propyl]-5-methylpyrazine-2-carboxamide]	9 nM
COCCCn1c([C@@H](NC(=O)c2cnc(C)cn2)[C@@H](C)OC)nc2cc(OC(F)(F)F)ccc21 [Example 130, N-[(1R,2R)-2-methoxy-1-[1-(3-methoxypropyl)-5-(trifluoromethoxy)-1H-1,3-benzodiazol-2-yl]propyl]-5-methylpyrazine-2-carboxamide]	13 nM
CO[C@H](C)[C@H](NC(=O)c1cnc(C)cn1)c1nc2cc(OC(F)(F)F)ccc2n1C1CC1 [Example 131, N-[(1R,2R)-1-[1-cyclopropyl-5-(trifluoromethoxy)-1H-1,3-benzodiazol-2-yl]-2-methoxypropyl]-5-methylpyrazine-2-carboxamide]	14 nM
CCn1c([C@@H](NC(=O)c2cnc(C)cn2)[C@@H]2CCOC2)nc2cc(C(F)(F)F)ccc21 [Example 140, N-[(S)-[1-ethyl-5-(trifluoromethyl)-1H-1,3-benzodiazol-2-yl][(3S)-oxolan-3-yl]methyl]-5-methylpyrazine-2-carboxamide]	12 nM
CCn1c([C@@H](NC(=O)c2cnc(C)cn2)[C@H]2CCOC2)nc2cc(F)ccc21 [Example 144, N-[(S)-(1-ethyl-5-fluoro-1H-1,3-benzodiazol-2-yl)[(3R)-oxolan-3-yl]methyl]-5-methylpyrazine-2-carboxamide]	41 nM
Cc1cnc(C(=O)N[C@H](c2nc3ccc(C(F)(F)F)cc3n2CC(F)F)[C@@H]2CCOC2)cn1 [Example 145, N-[(S)-[1-(2,2-difluoroethyl)-6-(trifluoromethyl)-1H-1,3-benzodiazol-2-yl][(3S)-oxolan-3-yl]methyl]-5-methylpyrazine-2-carboxamide]	41 nM
CCn1c([C@@H](NC(=O)c2cnc(C)cn2)[C@]2(O)CCCOC2)nc2cc(F)ccc21 [Example 150, N-[(R)-(1-ethyl-5-fluoro-1H-1,3-benzodiazol-2-yl)[(3R)-3-hydroxyoxan-3-yl]methyl]-5-methylpyrazine-2-carboxamide]	14 nM
Cc1cnc(C(=O)N[C@H](c2nc3cc(F)ccc3n2CC(F)F)[C@]2(O)CCCOC2)cn1 [Example 151, N-[(R)-[1-(2,2-difluoroethyl)-5-fluoro-1H-1,3-benzodiazol-2-yl][(3R)-3-hydroxyoxan-3-yl]methyl]-5-methylpyrazine-2-carboxamide]	58 nM
CCn1c([C@@H](NC(=O)c2cnc(C)cn2)[C@]2(O)CCCOC2)nc2ccc(C(F)(F)F)cc21 [Example 152, N-[(R)-[1-ethyl-6-(trifluoromethyl)-1H-1,3-benzodiazol-2-yl][(3R)-3-hydroxyoxan-3-yl]methyl]-5-methylpyrazine-2-carboxamide]	14 nM
CCn1c([C@@H](NC(=O)c2cnc(C)cn2)[C@]2(O)CCCOC2)nc2ccc(F)cc21 [Example 153, N-[(R)-(1-ethyl-6-fluoro-1H-1,3-benzodiazol-2-yl)[(3R)-3-hydroxyoxan-3-yl]methyl]-5-methylpyrazine-2-carboxamide]	30 nM
CCn1c([C@@H](NC(=O)c2cnc(C)cn2)[C@]2(O)CCOC2)nc2cc(Cl)ccc21 [Example 154, N-[(R)-(5-chloro-1-ethyl-1H-1,3-benzodiazol-2-yl)[(3R)-3-hydroxyoxolan-3-yl]methyl]-5-methylpyrazine-2-carboxamide]	84 nM
CCn1c([C@@H](NC(=O)c2cnc(C)cn2)[C@]2(O)CCOC2)nc2ccc(C(F)(F)F)cc21 [Example 155, N-[(R)-[1-ethyl-6-(trifluoromethyl)-1H-1,3-benzodiazol-2-yl][(3R)-3-hydroxyoxolan-3-yl]methyl]-5-methylpyrazine-2-carboxamide]	63 nM
CCn1c([C@@H](NC(=O)c2cnc(C)cn2)[C@]2(O)CCOC2)nc2cc(C(F)(F)F)ccc21 [Example 156, N-[(R)-[1-ethyl-5-(trifluoromethyl)-1H-1,3-benzodiazol-2-yl][(3R)-3-hydroxyoxolan-3-yl]methyl]-5-methylpyrazine-2-carboxamide]	39 nM
CCn1c([C@@H](NC(=O)c2cnc(C)cn2)[C@@]2(O)CCOC2)nc2cc(C(F)(F)F)ccc21 [Example 167, N-[(R)-[1-ethyl-5-(trifluoromethyl)-1H-1,3-benzodiazol-2-yl][(3S)-3-hydroxyoxolan-3-yl]methyl]-5-methylpyrazine-2-carboxamide]	55 nM

More lines, in order of falling IC50, values ahead:

IC50	Compound
8 nM	CCn1c([C@@H](NC(=O)c2cnc(C)cn2)C2CC(F)(F)C2)nc2cc(F)ccc21 [Example 127, N-[(S)-(3,3-difluorocyclobutyl)(1-ethyl-5-fluoro-1H-1,3-benzodiazol-2-yl)methyl]-5-methylpyrazine-2-carboxamide]
8 nM	Cc1cnc(C(=O)N[C@@H](CC2CC2)c2nc3cc(F)c(F)cc3n2CCOC(F)F)cn1 [Example 128, N-[(1S)-2-cyclopropyl-1-{1-[2-(difluoromethoxy)ethyl]-5,6-difluoro-1H-1,3-benzodiazol-2-y1}ethyl]-5-methylpyrazine-2-carboxamide]
8 nM	Cc1cnc(C(=O)N[C@H](c2nc3cc(C(F)(F)F)ccc3n2CC(F)F)[C@H]2CCOC2)cn1 [Example 142, N-[(S)-[1-(2,2-difluoroethyl)-5-(trifluoromethyl)-1H-1,3-benzodiazol-2-yl][(3R)-oxolan-3-yl]methyl]-5-methylpyrazine-2-carboxamide]
7 nM	Cc1cnc(C(=O)N[C@@H](CC2CC2)c2nc3cc(Cl)ccc3n2CCOC(F)F)cn1 [Example 125, N-[(1S)-1-{5-chloro-1-[2-(difluoromethoxy)ethyl]-1H-1,3-benzodiazol-2-yl}-2-cyclopropylethyl]-5-methylpyrazine-2-carboxamide]
6 nM	Cc1cnc(C(=O)N[C@H](c2nc3ccc(Cl)cc3n2CC(F)F)C2CC2)cn1 [Example 157, N-[(S)-[6-chloro-1-(2,2-difluoroethyl)-1H-1,3-benzodiazol-2-yl](cyclopropyl)methyl]-5-methylpyrazine-2-carboxamid]
4 nM	COCCn1c([C@@H](NC(=O)c2cnc(C(F)(F)F)cn2)[C@@H](C)OC)nc2cc(OC(F)(F)F)ccc21 [Example 124, N-[(1R,2R)-2-methoxy-1-[1-(2-methoxyethyl)-5-(trifluoromethoxy)-1H-1,3-benzodiazol-2-yl]propyl]-5-(trifluoromethyl)pyrazine-2-carboxamide]
3 nM	CO[C@H](C)[C@H](NC(=O)c1cnc(C)cn1)c1nc2cc(OC(F)(F)F)ccc2n1C(C)C [Example 123, N-[(1R,2R)-2-methoxy-1-[1-(propan-2-yl)-5-(trifluoromethoxy)-1H-1,3-benzodiazol-2-yl]propyl]-5-methylpyrazine-2-carboxamide]
3 nM	Cc1cnc(C(=O)N[C@H](c2nc3ccc(C(F)(F)F)cc3n2CC(F)F)C2CC2)cn1 [Example 138, N-[(S)-cyclopropyl[1-(2,2-difluoroethyl)-6-(trifluoromethyl)-1H-1,3-benzodiazol-2-yl]methyl]-5-methylpyrazine-2-carboxamide]
3 nM	CCn1c([C@@H](NC(=O)c2cnc(C)cn2)[C@]2(O)CCCOC2)nc2cc(C(F)(F)F)ccc21 [Example 149, N-[(R)-[1-ethyl-5-(trifluoromethyl)-1H-1,3-benzodiazol-2-yl][(3R)-3-hydroxyoxan-3-yl]methyl]-5-methylpyrazine-2-carboxamide]
3 nM	Cc1cnc(C(=O)N[C@H](c2nc3cc(Cl)ccc3n2CC(F)F)C2CC2)cn1 [Example 158, N-[(S)-[5-chloro-1-(2,2-difluoroethyl)-1H-1,3-benzodiazol-2-yl](cyclopropyl)methyl]-5-methylpyrazine-2-carboxamide]
1 nM	CO[C@H](C)[C@H](NC(=O)c1cnc(C)cn1)c1nc2cc(OC(F)(F)F)ccc2n1CCOC1CC1 [Example 119, N-[(1R,2R)-1-[1-(2-cyclopropoxyethyl)-5-(trifluoromethoxy)-1H-1,3-benzodiazol-2-yl]-2-methoxypropyl]-5-methylpyrazine-2-carboxamide]
1 nM	COCCn1c([C@@H](NC(=O)c2cnc(C(F)F)cn2)[C@@H](C)OC)nc2cc(OC(F)(F)F)ccc21 [Example 121, 5-(difluoromethyl)-N-[(1R,2R)-2-methoxy-1-[1-(2-methoxyethyl)-5-(trifluoromethoxy)-1H-1,3-benzodiazol-2-yl]propyl]pyrazine-2-carboxamide]
1 nM	Cc1cnc(C(=O)N[C@H](c2nc3c(C4CC4)c(Br)ccc3n2C)C2CC2)cn1 [Example 122, N-[(S)-(5-bromo-4-cyclopropyl-1-methyl-1H-1,3-benzodiazol-2-yl)(cyclopropyl)methyl]-5-methylpyrazine-2-carboxamide]
